Converted amounts (≈) assume the structure as drawn. The source made the active and inactive calls. The rule behind the calls is not given here.
Key:
[1] = tested on: Staphylococcus aureus; assay: Antibacterial activity against methicillin-resistant Staphylococcus aureus CCARM 3089 assessed as reduction in bacterial growth incubated for 72 hrs by spectrophotometry; format: functional; settings: CCARM 3089, 72 h
[2] = tested on: Pseudomonas aeruginosa; assay: Antibacterial activity against multidrug-resistant Pseudomonas aeruginosa CCARM 2095 assessed as reduction in bacterial growth incubated for 72 hrs by spectrophotometry; format: functional; settings: CCARM 2095, 72 h
[3] = tested on: Staphylococcus aureus; assay: Induction of cytoplasmic membrane depolarization in Staphylococcus aureus at 2 times of MIC within 4 mins by SYTOX green-based assay; format: functional, organism-based
[4] = tested on: Enterococcus faecium; assay: Antibacterial activity against vancomycin-resistant Enterococcus faecium ATCC 51559 assessed as reduction in bacterial growth incubated for 18 hrs by spectrophotometry based microtiter broth dilution method; format: functional; settings: ATCC 51559, 18 h
[5] = tested on: Staphylococcus aureus; assay: Induction of cytoplasmic membrane depolarization in Staphylococcus aureus at 2 times of MIC for a period of 600 sec by DiSC3-5-fluorescence based assay; format: functional, organism-based
[6] = tested on: Escherichia coli; assay: Induction of membrane integrity disruption in Escherichia coli at 2 times of MIC by propidium iodide staining based flow cytometry relative to control (reference value: 2.97 %); format: functional

| SMILES | MIC [1] [µM] | MIC [2] [µM] | Activity [3] | MIC [4] [µM] | Activity [5] | Activity [6] [%] |
| --- | --- | --- | --- | --- | --- | --- |
| O=C(N[C@H](CO)[C@H](O)c1ccc([N+](=O)[O-])cc1)C(Cl)Cl [CHLORAMPHENICOL] | 128 (≈ 41.4 µg/mL) | 1020 (≈ 331 µg/mL) | – | – | – | – |
| O=C(O)c1cn(C2CC2)c2cc(N3CCNCC3)c(F)cc2c1=O [CIPROFLOXACIN] | 1020 (≈ 339 µg/mL) | 512 (≈ 170 µg/mL) | – | – | – | – |
| CC[C@H](C)[C@H](NC(=O)CN)C(=O)NCC(=O)N[C@@H](C)C(=O)N[C@H](C(=O)N[C@@H](CC(C)C)C(=O)N[C@@H](CCCCN)C(=O)N[C@H](C(=O)N[C@@H](CC(C)C)C(=O)N[C@H](C(=O)N[C@H](C(=O)NCC(=O)N[C@@H](CC(C)C)C(=O)N1CCC[C@H]1C(=O)N[C@@H](C)C(=O)N[C@@H](CC(C)C)C(=O)N[C@H](C(=O)N[C@@H](CO)C(=O)N[C@@H](Cc1c[nH]c2ccccc12)C(=O)N[C@H](C(=O)N[C@@H](CCCCN)C(=O)N[C@@H](CCCNC(=N)N)C(=O)N[C@@H](CCCCN)C(=O)N[C@@H](CCCNC(=N)N)C(=O)N[C@@H](CCC(N)=O)C(=O)N[C@@H](CCC(N)=O)C(N)=O)[C@@H](C)CC)[C@@H](C)CC)[C@@H](C)O)[C@@H](C)O)C(C)C)C(C)C [MELITTIN] | – | – | Active | 8 (≈ 22.8 µg/mL) | Active | 75.38 |
| Cc1onc(-c2ccccc2)c1C(=O)N[C@@H]1C(=O)N2[C@@H]1SC(C)(C)[C@@H]2C(=O)O [OXACILLIN] | 512 (≈ 206 µg/mL) | 512 (≈ 206 µg/mL) | – | – | – | – |
